Source: patent publication US20170129864A1, “NEW SIGMA-RECEPTORS LIGANDS WITH ANTI-APOPTOTIC AND/OR PRO-APOPTOTIC PROPERTIES, OVER CELLULAR BIOCHEMICAL MECHANISMS WITH NEUROPROTECTIVE, ANTI-CANCER, ANTI-METASTATIC AND ANTI-(CHRONIC) INFLAMMATORY ACTION” (Anavex Life Sciences Corp., priority 2007, published 2017)

Tests used:
σ-1 receptors = σ-1 receptors (Homo sapiens, UniProt Q99720); experiment: agonistic or antagonistic action on σ-1 receptors
[1] = tested on: anoxia that is caused by pentylenetetrazole (PTZ); experiment: protection against pentylenetetrazole (PTZ) induced anoxia and tonic crises; format: in vivo, mice
[2] = tested on: Aβ25-35 induced neutotoxicity and oxidative stress; experiment: Aβ25-35 induced neurotoxicity and oxidative stress; format: in vivo; settings: 0.03-1 mg/kg, i.p
σ-2 receptors [3] = target: T1, σ-2 receptors (Homo sapiens, UniProt Q5BJF2); experiment: affinity for σ-2 receptors; format: binding
[4] = tested on: scopolamine and dizocilpine (MK-801) induced amnesia or amyloid peptide β25-35 (Aβ25-35); experiment: anti-amnesic action against scopolamine, dizocilpine (MK-801) or Aβ25-35 induced amnesia; format: in vivo; settings: per os (po), in mice
mice = experiment: forced swimming test; format: in vivo; set-up: dose or concentration left out as unconfirmed; settings: forced swimming test in mice
σ-2 receptors [5] = target: T1, σ-2 receptors; experiment: agonistic action for σ-2
cancer cells = experiment: cytotoxic action on cancer cells via apoptosis; format: cell-based; settings: depending on the cell line used

T1 sequence (Q5BJF2 whole entry): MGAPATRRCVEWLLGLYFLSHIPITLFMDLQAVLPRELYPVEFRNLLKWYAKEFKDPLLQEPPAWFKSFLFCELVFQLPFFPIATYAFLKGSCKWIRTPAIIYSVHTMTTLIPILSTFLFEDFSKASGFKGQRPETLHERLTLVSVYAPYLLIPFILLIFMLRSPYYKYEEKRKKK
Chain of σ-1 receptors (Q99720 whole entry): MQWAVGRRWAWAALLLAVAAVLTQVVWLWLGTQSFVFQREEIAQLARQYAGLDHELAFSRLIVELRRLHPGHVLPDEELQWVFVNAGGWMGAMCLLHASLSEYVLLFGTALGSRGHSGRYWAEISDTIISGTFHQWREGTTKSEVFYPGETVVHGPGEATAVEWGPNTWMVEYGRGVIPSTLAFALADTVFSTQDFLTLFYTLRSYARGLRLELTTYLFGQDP

## CN(C)CC1COC(c2ccccc2)(C23CC4CC(CC(C4)C2)C3)C1 (stereo not drawn) [AdPhAE, 5-(TRICYCLO[3.3.1.13,7]DEC-1-YL)-TETRAHYDRO-N,N-DIMETHYL-5-PHENYL-3-FURANEMETHANAMINE-]
σ-1 receptors
  action on σ-1 receptors: weak agonists

## CN(C)CC1COC2(C1)C1CC3CC(C1)CC2C3 (stereo not drawn) [AdAE, (DIHYDRO-4-(DIMETHYLAMINOMETHYL)SPIRO{FURANE-2(3H), 2′TRICYCLO[3.3.1.13,7]DECANE}]
σ-1 receptors
  action on σ-1 receptors: weak agonists

## CNCC1CCOC1(c1ccccc1)c1ccccc1 (stereo not drawn) [AE37 Met, tetrahydro-N-methyl-2,2-diphenyl-3-furanomethanamine]
[1]; in mice
  protection against anoxia caused by pentylenetetrazole (PTZ): exceptional protection
[1]; mainly neuroprotective action
  activity relative to AE37 for the properties mentioned: slightly more active than AE37

## CN(C)CC1CCOC1(c1ccccc1)c1ccccc1 (stereo not drawn) [AE37, tetrahydro-N,N-dimethyl-2,2-diphenyl-3-furanomethanamine]
[2]
  activity against Aβ25-35 induced neurotoxicity and oxidative stress: very performant
σ-2 receptors [3]
  affinity for σ-2 receptors: no affinity

## CN(C)CC1COC(c2ccccc2)(c2ccccc2)C1 (stereo not drawn) [AE14, Tetrahydro-N,N,-dimethyl-5,5-diphenyl-3-furanomethanamine]
[4]
  anti-amnesic action, active doses from: ≥ 0.03 mg/kg
mice
  anti-immobility action: very strong anti-immobility action
σ-2 receptors [5]
  concentration at which agonistic action for σ-2 is shown: over 10 μM
Cancer cells
  concentration at which cytotoxic action on cancer cells is shown: over 200 μM
σ-2 receptors [3]
  Ki: > 10 µM
σ-2 receptors [3]; σ-2 versus σ-1
  affinity for σ-2 receptors, times lower than for σ-1: more than 100 times
